Results from ChEMBL document CHEMBL6109103, “Dodecapeptides derived from human cathelicidin with potent activity against carbapenem-resistant Acinetobacter baumannii” (Eur J Med Chem, 2025).
Values after ≈ are worked out from the molar mass of the structure shown. Positions of bridges follow the written chain, without caps; N, C: chain ends. Non-standard residues stand in square brackets, D forms with d. Residues, ends and D or L forms follow the SMILES beside them. S5 = C=CCCC[C@](C)(N)C(=O)O

What was measured:
Type in all cases: functional
Acinetobacter baumannii [1] = test: Antibacterial activity against multidrug-resistant Acinetobacter baumannii assessed as inhibition of bacterial growth incubated for 24 hrs by broth dilution assay
Acinetobacter baumannii [2] = test: Antibacterial activity against Acinetobacter baumannii ATCC 19606 assessed as inhibition of bacterial growth incubated for 24 hrs by broth dilution assay
Staphylococcus aureus [3] = test: Antibacterial activity against Methicillin-resistant Staphylococcus aureus ATCC 43300 assessed as inhibition of bacterial growth incubated for 24 hrs by broth dilution assay
Staphylococcus aureus [4] = test: Antibacterial activity against Staphylococcus aureus […] assessed as inhibition of bacterial growth incubated for 24 hrs by broth dilution assay

Compound | MIC (Acinetobacter baumannii [1]) | MIC (Acinetobacter baumannii [2]) | MIC (Staphylococcus aureus [3]) | MIC (Staphylococcus aureus [4])
CC[C@H](C)[C@H](NC(=O)[C@H](CCCNC(=N)N)NC(=O)[C@@H](N)CCCCN)C(=O)N[C@H](C(=O)N[C@@H](CCCNC(=N)N)C(=O)N[C@@H](CCCNC(=N)N)C(=O)N[C@H](C(=O)N[C@@]1(C)CCC/C=C\CCC[C@@](C)(C(=O)O)NC(=O)[C@H](CC(C)C)NC(=O)[C@H](Cc2ccccc2)NC(=O)[C@H]([C@@H](C)CC)NC1=O)[C@@H](C)CC)C(C)C (H-KRIVRRI[S5]IFL[S5]-OH; staple (Z) 8-12) | 10 µg/mL (≈ 6.39 µM) | 10 µg/mL (≈ 6.39 µM) | 40 µg/mL (≈ 25.6 µM) | 80 µg/mL (≈ 51.1 µM)
CC[C@H](C)[C@@H]1NC(=O)[C@H](CCCCN)NC(=O)[C@@](C)(NC(=O)[C@H](CCCNC(=N)N)NC(=O)[C@H](CCCNC(=N)N)NC(=O)[C@@H](NC(=O)[C@@H](NC(=O)[C@H](CCCNC(=N)N)NC(=O)[C@@H](N)CCCCN)[C@@H](C)CC)C(C)C)CCC/C=C\CCC[C@@](C)(C(=O)N[C@@H](CCCNC(=N)N)C(=O)O)NC(=O)[C@H](Cc2ccccc2)NC1=O (H-KRIVRR[S5]KIF[S5]R-OH; staple (Z) 7-11) | > 320 µg/mL | > 320 µg/mL | > 320 µg/mL | > 320 µg/mL
CC[C@H](C)[C@H](NC(=O)[C@H](CCCNC(=N)N)NC(=O)[C@@H](N)CCCCN)C(=O)N[C@H](C(=O)N[C@@H](CCCNC(=N)N)C(=O)N[C@@]1(C)CCC/C=C/CCC[C@@](C)(C(=O)N[C@@H](CC(C)C)C(=O)N[C@@H](CCCNC(=N)N)C(=O)O)NC(=O)[C@H]([C@@H](C)CC)NC(=O)[C@H](CCCCN)NC(=O)[C@H]([C@@H](C)CC)NC1=O)C(C)C (H-KRIVR[S5]IKI[S5]LR-OH; staple (E) 6-10) | 10 µg/mL (≈ 6.47 µM) | 10 µg/mL (≈ 6.47 µM) | 80 µg/mL (≈ 51.8 µM) | 80 µg/mL (≈ 51.8 µM)
CC[C@H](C)[C@@H]1NC(=O)[C@H](CCCCN)NC(=O)[C@H]([C@@H](C)CC)NC(=O)[C@H](CCCNC(=N)N)NC(=O)[C@@](C)(NC(=O)[C@@H](NC(=O)[C@@H](NC(=O)[C@H](CCCNC(=N)N)NC(=O)[C@@H](N)CCCCN)[C@@H](C)CC)C(C)C)CCC/C=C\CCC[C@@](C)(C(=O)O)NC(=O)[C@H](CC(C)C)NC(=O)[C@H](Cc2ccccc2)NC1=O (H-KRIV[S5]RIKIFL[S5]-OH; staple (Z) 5-12) | 40 µg/mL (≈ 26 µM) | 80 µg/mL (≈ 52.1 µM) | 80 µg/mL (≈ 52.1 µM) | > 320 µg/mL
CC[C@H](C)[C@@H]1NC(=O)[C@H](CCCNC(=N)N)NC(=O)[C@@](C)(NC(=O)[C@@H](NC(=O)[C@@H](NC(=O)[C@H](CCCNC(=N)N)NC(=O)[C@@H](N)CCCCN)[C@@H](C)CC)C(C)C)CCC/C=C\CCC[C@@](C)(C(=O)N[C@@H](Cc2ccccc2)C(=O)N[C@@H](CC(C)C)C(=O)N[C@@H](CCCNC(=N)N)C(=O)O)NC(=O)[C@H](CCCCN)NC1=O (H-KRIV[S5]RIK[S5]FLR-OH; staple (Z) 5-9) | 40 µg/mL (≈ 25.3 µM) | 40 µg/mL (≈ 25.3 µM) | > 320 µg/mL | > 320 µg/mL
CC[C@H](C)[C@@H]1NC(=O)[C@H](CCCNC(=N)N)NC(=O)[C@H](CCCNC(=N)N)NC(=O)[C@@](C)(NC(=O)[C@@H](NC(=O)[C@H](CCCNC(=N)N)NC(=O)[C@@H](N)CCCCN)[C@@H](C)CC)CCC/C=C\CCC[C@@](C)(C(=O)N[C@@H](CCCNC(=N)N)C(=O)O)NC(=O)[C@H](Cc2ccccc2)NC(=O)[C@H]([C@@H](C)CC)NC(=O)[C@H](CCCCN)NC1=O (H-KRI[S5]RRIKIF[S5]R-OH; staple (Z) 4-11) | > 320 µg/mL | > 320 µg/mL | > 320 µg/mL | > 320 µg/mL
CC[C@H](C)[C@@H]1NC(=O)[C@H](CCCNC(=N)N)NC(=O)[C@H](CCCNC(=N)N)NC(=O)[C@H](C(C)C)NC(=O)[C@@](C)(NC(=O)[C@H](CCCNC(=N)N)NC(=O)[C@@H](N)CCCCN)CCC/C=C/CCC[C@@](C)(C(=O)N[C@@H](CC(C)C)C(=O)N[C@@H](CCCNC(=N)N)C(=O)O)NC(=O)[C@H]([C@@H](C)CC)NC(=O)[C@H](CCCCN)NC1=O (H-KR[S5]VRRIKI[S5]LR-OH; staple (E) 3-10) | 10 µg/mL (≈ 6.3 µM) | 20 µg/mL (≈ 12.6 µM) | 80 µg/mL (≈ 50.4 µM) | 80 µg/mL (≈ 50.4 µM)
CC[C@H](C)[C@H](NC(=O)[C@H](CCCCN)NC(=O)[C@]1(C)CCC/C=C\CCC[C@](C)(NC(=O)[C@H](CCCNC(=N)N)NC(=O)[C@@H](N)CCCCN)C(=O)N[C@@H](C(C)C)C(=O)N[C@@H](CCCNC(=N)N)C(=O)N[C@@H](CCCNC(=N)N)C(=O)N1)C(=O)N[C@@H](Cc1ccccc1)C(=O)N[C@@H](CC(C)C)C(=O)N[C@@H](CCCNC(=N)N)C(=O)O (H-KR[S5]VRR[S5]KIFLR-OH; staple (Z) 3-7) | 40 µg/mL (≈ 24.7 µM) | 320 µg/mL (≈ 197 µM) | 160 µg/mL (≈ 98.6 µM) | 160 µg/mL (≈ 98.6 µM)
CC[C@H](C)[C@@H]1NC(=O)[C@H](CCCNC(=N)N)NC(=O)[C@H](CCCNC(=N)N)NC(=O)[C@H](C(C)C)NC(=O)[C@H]([C@@H](C)CC)NC(=O)[C@@](C)(NC(=O)[C@@H](N)CCCCN)CCC/C=C\CCC[C@@](C)(C(=O)N[C@@H](Cc2ccccc2)C(=O)N[C@@H](CC(C)C)C(=O)N[C@@H](CCCNC(=N)N)C(=O)O)NC(=O)[C@H](CCCCN)NC1=O (H-K[S5]IVRRIK[S5]FLR-OH; staple (Z) 2-9) | 160 µg/mL (≈ 101 µM) | 320 µg/mL (≈ 203 µM) | > 320 µg/mL | > 320 µg/mL
CC[C@H](C)[C@H](NC(=O)[C@H](CCCCN)NC(=O)[C@@H](NC(=O)[C@]1(C)CCC/C=C\CCC[C@](C)(NC(=O)[C@@H](N)CCCCN)C(=O)N[C@@H]([C@@H](C)CC)C(=O)N[C@@H](C(C)C)C(=O)N[C@@H](CCCNC(=N)N)C(=O)N1)[C@@H](C)CC)C(=O)N[C@@H](Cc1ccccc1)C(=O)N[C@@H](CC(C)C)C(=O)N[C@@H](CCCNC(=N)N)C(=O)O (H-K[S5]IVR[S5]IKIFLR-OH; staple (Z) 2-6) | 10 µg/mL (≈ 6.51 µM) | 10 µg/mL (≈ 6.51 µM) | 320 µg/mL (≈ 208 µM) | 320 µg/mL (≈ 208 µM)
CC[C@H](C)[C@@H]1NC(=O)[C@H](CCCNC(=N)N)NC(=O)[C@@](C)(N)CCC/C=C\CCC[C@@](C)(C(=O)N[C@H](C(=O)N[C@@H](Cc2ccccc2)C(=O)N[C@@H](CC(C)C)C(=O)N[C@@H](CCCNC(=N)N)C(=O)O)[C@@H](C)CC)NC(=O)[C@H]([C@@H](C)CC)NC(=O)[C@H](CCCNC(=N)N)NC(=O)[C@H](CCCNC(=N)N)NC(=O)[C@H](C(C)C)NC1=O (H-[S5]RIVRRI[S5]IFLR-OH; staple (Z) 1-8) | 40 µg/mL (≈ 25.1 µM) | 80 µg/mL (≈ 50.2 µM) | 160 µg/mL (≈ 100 µM) | 320 µg/mL (≈ 201 µM)
CC[C@H](C)[C@H](NC(=O)[C@H](CCCCN)NC(=O)[C@@H](NC(=O)[C@H](CCCNC(=N)N)NC(=O)[C@]1(C)CCC/C=C/CCC[C@](C)(N)C(=O)N[C@@H](CCCNC(=N)N)C(=O)N[C@@H]([C@@H](C)CC)C(=O)N[C@@H](C(C)C)C(=O)N1)[C@@H](C)CC)C(=O)N[C@@H](Cc1ccccc1)C(=O)N[C@@H](CC(C)C)C(=O)N[C@@H](CCCNC(=N)N)C(=O)O (H-[S5]RIV[S5]RIKIFLR-OH; staple (E) 1-5) | 10 µg/mL (≈ 6.39 µM) | 10 µg/mL (≈ 6.39 µM) | 160 µg/mL (≈ 102 µM) | 160 µg/mL (≈ 102 µM)
CO/N=C(\C(=O)N[C@@H]1C(=O)N2C(C(=O)O)=C(COC(C)=O)CS[C@H]12)c1csc(N)n1 [CEFOTAXIME] | > 320 µg/mL | 20 µg/mL (≈ 43.9 µM) | > 320 µg/mL | 2.5 µg/mL (≈ 5.49 µM)
O=C(O)c1cn(C2CC2)c2cc(N3CCNCC3)c(F)cc2c1=O [CIPROFLOXACIN] | 320 µg/mL (≈ 966 µM) | 2.5 µg/mL (≈ 7.54 µM) | 160 µg/mL (≈ 483 µM) | 2.5 µg/mL (≈ 7.54 µM)
H-KRIVIRIKDFLR-OH | 80 µg/mL | 160 µg/mL | > 320 µg/mL | > 320 µg/mL
H-KRIVIRIKIFLR-OH | 20 µg/mL | 20 µg/mL | 80 µg/mL | 40 µg/mL
H-KRIVIRIKKFLR-OH | 40 µg/mL | 80 µg/mL | 320 µg/mL | 160 µg/mL
H-KRIVIRIKRFLR-OH | 10 µg/mL | 20 µg/mL | 80 µg/mL | 160 µg/mL
H-KRIVKRIKDFLR-OH | 80 µg/mL | 160 µg/mL | > 320 µg/mL | > 320 µg/mL
H-KRIVKRIKIFLR-OH | 10 µg/mL | 20 µg/mL | > 320 µg/mL | 80 µg/mL
H-KRIVKRIKKFLR-OH | > 320 µg/mL | 160 µg/mL | 160 µg/mL | > 320 µg/mL
H-KRIVKRIKRFLR-OH | 80 µg/mL | 80 µg/mL | > 320 µg/mL | > 320 µg/mL
H-KRIVQRIKIFLR-OH | 20 µg/mL | 40 µg/mL | > 320 µg/mL | 160 µg/mL
H-KRIVQRIKKFLR-OH | 20 µg/mL | 80 µg/mL | > 320 µg/mL | > 320 µg/mL
H-KRIVQRIKRFLR-OH | 80 µg/mL | 160 µg/mL | > 320 µg/mL | > 320 µg/mL
H-KRIVRRIKDFLR-OH | 320 µg/mL | 320 µg/mL | > 320 µg/mL | > 320 µg/mL
H-KRIVRRIKKFLR-OH | 160 µg/mL | 80 µg/mL | > 320 µg/mL | > 320 µg/mL
H-KRIVRRIKRFLR-OH | 320 µg/mL | 320 µg/mL | > 320 µg/mL | > 320 µg/mL
H-LLGDFFRKSKEKIGKEF-OH | > 320 µg/mL | > 320 µg/mL | > 320 µg/mL | > 320 µg/mL
H-NLVPRTES-OH | > 320 µg/mL | > 320 µg/mL | > 320 µg/mL | > 320 µg/mL
